Laboratory results: patent US20150190509A1, “RESIN[…]” (MESTEX AG, priority 2012, published 2015)

Columns and labels:
[1] = storage stability of RTX dissolved in ethanol with or without protective gas; assay type: physicochemical
Method: Under these circumstances a loss of the RTX dissolved in ethanol occurs, on the order of magnitude of 10% in 3 months. However, if the RTX is dissolved together with argon in ethanol or in other body-compatible solvents, the loss at ambient temperature remains very low. As described in further detail below, RTX in the resiniferatoxin solution according to the invention even loses its undesired tendency to cling to polymeric surfaces.

[2] = loss of RTX on contact with polymer (polypropylene) syringe; assay type: physicochemical; details: diluted ready-for-use solution (buffer solution and hyaluronic acid), kept in polypropylene syringe for 10 minutes
Source text: An additional positive property of the resiniferatoxin solution according to the invention is the fact that the substance is stabilized even in a diluted, ready-for-use solution (i.e. diluted with a buffer solution and hyaluronic acid), so that it can also be used in combination with commercial, polymer plastic syringes which are usually produced from polypropylene, polyethylene, polyurethane and other materials. To date, it has been considered absolutely necessary for the RTX solution not to come in contact with the polymer, because it binds immediately to it.

C=C(C)[C@]12C[C@@H](C)[C@@]34O[C@](Cc5ccccc5)(O[C@@H]1[C@@H]3C=C(COC(=O)Cc1ccc(O)c(OC)c1)C[C@]1(O)C(=O)C(C)=C[C@@H]41)O2 [RTX, Resiniferatoxin]
RTX content (stability of the dissolved RTX) over months ([1]; RTX dissolved in ethanol at 5° C. with 0.07 wt% argon, second measurement series): 100% | RTX content (stability of the dissolved RTX) over months ([1]; RTX dissolved in ethanol at 5° C. without additional protective gas (argon), first measurement series): continuous decrease | RTX content (stability of the dissolved RTX) over months ([1]; RTX dissolved in ethanol at 25° C. with 0.07 wt % argon, third measurement series): 100% | loss of RTX at ambient temperature ([1]; RTX dissolved together with argon in ethanol or other body-compatible solvents, ambient temperature): very low | loss of the RTX dissolved in ethanol ([1]; frozen RTX stored under protective gas (argon), then dissolved with ethanol, in 3 months): ~10% | loss of RTX in polypropylene syringe [2]: without measurable loss
